Measurements published in US20250205339A1, “FORMULATION HAVING IMPROVED ABSORBABILITY OF LOW-SOLUBLE AND/OR LOW-MEMBRANE-PERMEABLE DRUG” (MEDRx Co., Ltd., priority 2022, published 2025).
Converted amounts (≈) assume the structure as drawn. Like-named read-outs stand apart in the source and are kept apart here. Blank lines part the entries; values can stand above or below the compound they belong to.

How the values were obtained:
Caco-2 cells [1] = system: Caco-2 cells
Method: In order to study an ionic liquid for enhancing the intestinal absorption effect of a drug with low solubility and/or low permeability, various types of ionic liquids were prepared and the permeability of a drug with low solubility and/or low permeability in compositions comprising the prepared ionic liquid and the drug was evaluated. Specifically, the permeability of a drug was evaluated by the Caco-2 cell membrane permeation assay according to the following procedures for compositions comprising VZ185, which is PROTAC, used as a model drug with low solubility and/or low permeability and each ionic liquid.
Sodium hydroxide (0.4 g) was dissolved in water (100 mL) to prepare 0.1N NaOH solution. MES (2-morpholinoethanesulfonic acid, 1.493 g) and D-glucose (2.453 g) were dissolved in HBSS (+) (free of phenol red) (600 mL), the solution was adjusted to pH 6.5 with 0.1N NaOH solution, and then HBSS (+) (free of phenol red) was further added and adjusted to 700 mL. The solution was sterilized by filtration through 0.22 μm membrane filter to prepare Transport Buffer (A).
HEPES (1.192 g), D-glucose (1.752 g) and BSA (1.25 g) were then dissolved in HBSS (+) (free of phenol red) (400 mL), the solution was adjusted to pH 7.4 with 0.1N NaOH solution, and then HBSS (+) (free of phenol red) was further added and adjusted to 500 mL. The solution was sterilized by filtration through 0.22 μm membrane filter to prepare Transport Buffer (B). • (2) Preparation of Sample Solution
VZ185 (1.5 mg) was mixed with 1% TWEEN 80 (1.5 mL) to 1 mg/ml of VZ185 solution. Each organic acid (0.05 mmol) which is an anion ingredient and each cationic lipid (0.05 mmol) which is a cation ingredient were mixed with Transport Buffer (A) (4.98 mL) to prepare an ionic liquid composition comprising 10 mM each of the ingredients.
1 mg/mL of VZ185 solution (25 μL) and the ionic liquid composition or control composition (475 μL) were mixed to prepare 50 μg/mL of a drug-ionic liquid composition or a drug-control composition. […]

[2] = Parallel Artificial Membrane Permeation Assay (PAMPA); type: in vitro ADME; settings: Examples 3 and 4, FIG. 1-3; isostearic acid-DODMA, isostearic acid-DODAP, oleic acid-DODMA (5 mM each ingredient); control PBS
Method: In this assay, VZ185 and BI-3663 were used as a drug with low solubility and/or low permeability, and isostearic acid-DODMA, isostearic acid-DODAP and oleic acid-DODMA were used as an ionic liquid. As the control, PBS was used.
Specifically, the permeability of the drugs was evaluated by Parallel Artificial Membrane Permeability Assay-Skin Kit (BioAssay Systems) according to the following procedures. • (1) Preparation of Phosphate Buffer Solution (PBS)
One tablet of Phosphate Buffered Saline Tablet (Sigma) was dissolved in 200 mL of water to prepare PBS. • (2) Preparation of Sample Solution
Also, PBS (475 μL) was mixed with 1 mg/mL of VZ185 solution (25 μL) to prepare 50 μg/mL of a drug-control solution as the control.
4% Lecithin/dodecane solution (5 μL) was then added into each donor well and allowed to stand. PBS (300 μL) was added into each acceptor well and 50 μg/mL of the drug-ionic liquid composition (200 μL) was added into each donor well, and the mixture was incubated in a thermostatic bath at 37° C. […] The sample solution of BI-3663 was prepared according to the same procedure.

[3] = cited from earlier work
Caco-2 cells [4] = experiment: Cell membrane integrity by permeability of Lucifer Yellow; settings: Example 1; after VZ185 permeation test with 10 mM ionic liquid or control composition (5 mM where labelled); 60 min; standard value <1%
Caco-2 cells [5] = experiment: Cell membrane integrity by Trans-Epithelial Electrical Resistance (TEER); settings: Example 1; Caco-2 monolayer exposed to VZ185 50 μg/mL with 10 mM ionic liquid or control composition (5 mM where labelled); standard value >1000Ω
Caco-2 cells [6] = system: Caco-2 cells; remark: listed apart in the source
Caco-2 cells [7] = system: Caco-2 cells; remark: listed apart in the source

absorbability of BI-3663 by use of the ionic liquids (Caco-2 cells [1]): remarkably improved
absorbability of the drug by the PAMPA with ionic liquids [2]: remarkably improved
Compound: COc1cc(C(=O)NCCOCCOCCOCCC(=O)Nc2cccc3c2C(=O)N(C2CCC(=O)NC2=O)C3=O)ccc1Nc1ncc(C(F)(F)F)c(Oc2cccc3c2C(=O)CC3)n1 (stereo not shown) [BI-3663]
Solubility [3]: <1 µg/mL

absorbability of VZ185 by use of the ionic liquids (Caco-2 cells [1]): remarkably improved
absorbability of the drug by the PAMPA with ionic liquids [2]: remarkably improved
Compound: COc1cc(-c2cn(C)c(=O)c3cnccc23)cc(OC)c1CN1CCN(CCCCCOc2cc(-c3scnc3C)ccc2CNC(=O)[C@@H]2C[C@@H](O)CN2C(=O)[C@@H](NC(=O)C2(F)CC2)C(C)(C)C)CC1 [VZ185]
Solubility [3]: 85 µg/mL (≈ 85.4 µM)

Lucifer Yellow (%) (Caco-2 cells [4]): 4.3%
TEER (Caco-2 cells [5]): 210 Ω
Compound: O=C([O-])CCCCCCCNC(=O)c1ccccc1O.[Na+] [SNAC, salcaprozate sodium]

Compound: Oleic acid-Arginine
Lucifer Yellow (%) (Caco-2 cells [6]): 0.1%
TEER (Caco-2 cells [7]): 3560 Ω

absorbability of bifonazole by use of the ionic liquid (Caco-2 cells [1]): remarkably improved
absorbability of the drug by the PAMPA with ionic liquids [2]: remarkably improved
Compound: c1ccc(-c2ccc(C(c3ccccc3)n3ccnc3)cc2)cc1 (stereo not shown) [bifonazole]

TEER (Caco-2 cells [7]; human, 10 mM): 550 Ω
Compound: CC(O)C(=O)O (stereo not shown) [Lactic acid, lactic acid]

Compound: CCCCCCCC/C=C\CCCCCCCC(=O)[O-].[Na+] [Sodium oleate, sodium oleate]
TEER (Caco-2 cells [5]): 100 Ω

Compound: Oleic acid-Trometamol
Lucifer Yellow (%) (Caco-2 cells [6]): 0.1%
TEER (Caco-2 cells [7]): 4750 Ω
